From PubChem BioAssay (NCI)
Several values for one entry are separate records, joined by “and”; a condition that tells them apart may be missing. Equal values may be shown once.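 Briefly, cells in 96-well plates were exposed to five compound concentrations for 48 h, and endpoints were estimated by linear interpolation. GI50 is the concentration that inhibits growth by half. Definition used: TGI = concentration required for complete inhibition of growth.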

Key:
Assay in all cases: inhibition of tumour cell growth, NCI panel, 48 h
OVCAR-8 ovarian = tested on: OVCAR-8 ovarian
M14 melanoma = tested on: M14 melanoma
UO-31 renal = tested on: UO-31 renal
A498 renal = tested on: A498 renal
K-562 leukemia = tested on: K-562 leukemia
SF-268 CNS = tested on: SF-268 CNS
RPMI-8226 leukemia = tested on: RPMI-8226 leukemia
CCRF-CEM leukemia = tested on: CCRF-CEM leukemia
SK-OV-3 ovarian = tested on: SK-OV-3 ovarian
MDA-MB-231 breast = tested on: MDA-MB-231 breast

SMILES | GI50 (OVCAR-8 ovarian) [µM] | TGI (OVCAR-8 ovarian) [µM] | GI50 (M14 melanoma) [µM] | TGI (M14 melanoma) | GI50 (UO-31 renal) [µM] | TGI (UO-31 renal) | GI50 (A498 renal) [µM] | TGI (A498 renal) [µM] | GI50 (K-562 leukemia) [µM] | TGI (K-562 leukemia) [µM] | GI50 (SF-268 CNS) [µM] | TGI (SF-268 CNS) [µM] | GI50 (RPMI-8226 leukemia) [µM] | TGI (RPMI-8226 leukemia) [µM] | GI50 (CCRF-CEM leukemia) [µM] | TGI (CCRF-CEM leukemia) [µM] | GI50 (SK-OV-3 ovarian) [µM] | TGI (SK-OV-3 ovarian) [µM] | GI50 (MDA-MB-231 breast) [µM] | TGI (MDA-MB-231 breast) [µM]
CC(C)(C)NC/C(=C\c1ccccc1)C(=O)c1ccccc1 | 2.82 | 10.1 | 1.8 | 4.2 µM | 1.41 | 2.88 µM | 1.8 | 3.64 | 2.24 | 12.4 | 3.8 | 21 | 2.14 | 7.31 | 0.936 | 51.7 | 3.83 | 13.8 | 2.72 | 8.12
O=S(=O)(Nc1ccc2ccccc2c1)c1ccc(-c2cnc(C3CC3)o2)cc1 | 2.88 | 67.1 | 0.701 | 14.9 µM | 1.68 | 18.8 µM | 0.462 | 5.28 | 0.394 | > 100 | 3.44 | 24.5 | 3.18 | 24.8 | 1.64 | > 100 | 1.54 | 32.3 | 2.81 | 14.2
O=C(Cn1c(C(=O)c2ccccc2)nc2ccccc21)c1ccc(F)cc1 | 37.4 | > 100 | 3.67 | > 100 µM | > 43.8 | > 100 µM | 4.86 | > 43.7 | 2.86 | > 100 | 19.6 | > 100 | 3.47 | > 52.5 | 5.75 | > 100 | 32.7 | > 100 | 15.7 | > 100
Nc1nc(N)c(N=Nc2ccc(C(=O)O)c(O)c2)c(N)n1 | – | > 100 | – | > 100 µM | – | > 100 µM | – | > 100 | – | > 100 | – | > 100 | – | > 100 | – | > 100 | – | > 100 | – | > 100
CCN(CC)CC(C)(C)C(=O)/C=C/c1ccc(/C=C/C(=O)C(C)(C)CN(CC)CC)cc1 | – | 0.774 | – | 2.46 µM | – | 4.96 µM | – | 3.49 | – | – | – | 2.11 | – | 0.46 | – | 0.31 | – | 4.08 | – | 0.756
NC(=Nc1nc(-c2ccccn2)cc2ccccc12)c1ccccn1 | 0.0505 | 15.5 | 0.00816 | 0.534 µM and 2.86 µM | 0.239 | 0.921 µM and 1.96 µM | 0.0283 | – | 0.0199 | 5.3 | 0.111 | 12.1 | < 0.0175 | 0.515 | 0.00229 | – | 0.263 | > 19.4 | 0.941 | > 100
CC1CC(C)C2=NOS3=C2C1=NO3 (stereo not given) | – | > 100 | – | > 100 µM | – | > 100 µM | – | 94.8 | – | > 100 | – | > 100 | – | > 100 | – | > 100 | – | > 100 | – | > 100
Cc1nnc(-c2ccc(C)c(-c3ccc(C(=O)NCc4ccc(Cl)cc4)cc3)c2)o1 | > 25 | > 25 | 15.7 | > 25 µM | 4.37 | > 25 µM | 7.03 | > 25 | 7.64 | > 25 | 12.9 | > 25 | 10.2 | > 25 | 14.7 | > 25 | 9.53 | > 25 | 10.4 | > 25
CCOc1c(C#N)c2c(N)ncnc2n1C1OC(CO)C(O)C1O (stereo not given) | 4.81 | > 100 | 1.92 | 5.57 µM | 2.86 | > 40.3 µM | 4.23 | 49.2 | 1.5 | 16.4 | 3.37 | 65.4 | 2.12 | 9 | 3.18 | 24 | 3.34 | 53.1 | 6.15 | > 82.9
COc1cc(-c2ccc(NC(=O)NC3CC3)c(OC)c2)ccc1NC(=O)NC1CC1 | 6.83 | > 100 | > 100 | > 100 µM | 5.27 | > 100 µM | 19.2 | > 100 | 2.45 | > 100 | 8.21 | > 100 | 2.47 | > 24.7 | 4.34 | > 100 | 23.8 | > 100 | 11.6 | > 100
C1CCN2CC3CCCN4CCCC(C2C1)C34 (stereo not given) | – | > 100 | – | > 100 µM | – | – | – | > 100 | – | > 100 | – | > 100 | – | > 100 | – | > 100 | – | > 100 | – | > 100
N#Cc1c(N)nc(N2CCSCC2)c(C#N)c1-c1ccc(O)cc1 | 33.6 | > 100 | – | – | 23.2 | > 100 µM | 13.4 | 29.8 | 19.8 | 58.3 | 18.2 | 56.5 | 17.3 | 48.5 | 26.4 | > 100 | 24.5 | 98.9 | 12.4 | 27.5
CO[C@@H]1[C@H]2[C@@H](C)c3ccoc3C[C@@H]2[C@@]2(C)CC[C@H](OC(=O)c3ccccc3)[C@](C)(C(=O)O)[C@]2(O)[C@@H]1OC(=O)c1ccccc1 | 14.3 | > 50 | 8.53 | 24.4 µM | > 50 | > 50 µM | 0.941 | 7.67 | 15.4 | > 50 | 21.2 | > 50 | 15.4 | > 50 | 22.7 | > 50 | – | – | 6.07 | 16
CCc1nc2cc(/C=C/C(=O)NO)ccc2c(=O)n1CCc1ccc(F)cc1 | – | – | 1.65 | 3.6 µM | 1.41 | 3.11 µM | 1.1 | 2.77 | 2.37 | > 100 | 2.14 | 5.98 | 0.99 | > 100 | 1.39 | > 100 | 1.93 | 4.3 | 1.32 | 4.67
